Experimental findings from patent publication US9346799B2, “Useful combinations of monobactam antibiotics with beta-lactamase inhibitors” (Basilea Pharmaceutica AG, priority 2005, dated 2016) are described below.

Holding throughout (experiment): MIC by broth microdilution (NCCLS M7-A5)
Background: Dilution methods test growth across graded concentrations, often in twofold steps.

Assay [1] relates to Acinetobacter sp. J2. To be noted: Acinetobacter baumannii J2.
Assay [2] relates to Pseudomonas aeruginosa MK1184.
In assay [3] the test system is Pseudomonas aeruginosa 1973E.
Assay [4] deals with Enterobacter cloacae P99.
In assay [5] the test system is Klebsiella pneumoniae CF104.
In assay [6] the test system is Serratia marcescens S6.
The test system of assay [7] is Stenotrophomonas malthophilia 1AC736. To be noted: Stenotrophomonas maltophilia 1AC736.
Setting [8] is: + 206 + clavulanate, 4 mg/L each.
Setting [9] is: + 315 + clavulanate, 4 mg/L each.
Where [10] appears, read: + 102 + clavulanate, 4 mg/L each.
Where [11] appears, read: MIC of antibiotic 1 with the labelled bridged monobactam of formula II and clavulanate, 4 mg/L each.

Each structure is given as a SMILES string.

For `CC1C(NC(=O)C(=NOCc2cc(=O)c(O)cn2O)c2nsc(N)n2)C(=O)N1S(=O)(=O)O` (stereo not drawn) [Compound 2], the MIC of antibiotic in assay [1] (setting [8]) came to 16 µg/mL; in assay [1] (antibiotic alone), 4 µg/mL; in assay [2] (setting [8]) it was 16 µg/mL; in assay [2] (antibiotic alone) it was 8 µg/mL; in assay [3] (antibiotic alone) it was 8 µg/mL; in assay [4] (setting [8]), 16 µg/mL. The MIC of antibiotic is greater than 32 µg/mL in assay [4] (antibiotic alone); greater than 32 µg/mL in assay [5] (antibiotic alone); greater than 32 µg/mL in assay [6] (antibiotic alone); 0.5 µg/mL in assay [7] (setting [8]); 4 µg/mL in assay [7] (antibiotic alone).

For `C[C@H]1[C@H](NC(=O)/C(=N\OCc2cc(=O)c(O)cn2C)c2csc(N)n2)C(=O)N1S(=O)(=O)O` [Compound 6, (3S,4S)-3-{(2Z)-2-(2-amino(1,3-thiazol-4-yl))-3-[(5-hydroxy-1-methyl-4-oxo(2-hydropyridyl))methoxy]-3-azaprop-2-enoylamino}-4-methyl-2-oxoazetidinesulfonic acid], the MIC of antibiotic in assay [1] (setting [8]) was 32 µg/mL; in assay [1] (setting [9]) it was greater than 32 µg/mL; in assay [2] (setting [8]), greater than 32 µg/mL; in assay [2] (setting [9]), greater than 32 µg/mL; in assay [3] (setting [8]) it was greater than 32 µg/mL; in assay [3] (setting [9]), greater than 32 µg/mL. Also, the MIC of antibiotic in assay [4] (setting [8]) turned out to be 16 µg/mL; in assay [4] (setting [9]) it was 4 µg/mL; in assay [5] (setting [8]), 0.5 µg/mL; in assay [5] (setting [9]), 0.5 µg/mL; in assay [6] (setting [8]) it was 4 µg/mL; in assay [6] (setting [9]), 4 µg/mL. In addition, the MIC of antibiotic in assay [7] (setting [8]) worked out at 4 µg/mL; in assay [7] (setting [9]), 2 µg/mL.

For the compound `Nc1nc(C(=NOCc2cc(=O)c(O)cn2O)C(=O)NC2CN(S(=O)(=O)O)C2=O)cs1` (stereo not drawn) [Compound 9], the MIC of antibiotic in assay [1] (setting [10]) was greater than 32 µg/mL; in assay [1] (antibiotic alone) it was greater than 32 µg/mL; in assay [2] (setting [10]), 4 µg/mL; in assay [2] (antibiotic alone), greater than 32 µg/mL; in assay [3] (setting [10]) it was 8 µg/mL; in assay [3] (antibiotic alone) it was 8 µg/mL. The MIC of antibiotic in assay [4] (setting [10]) is 32 µg/mL; in assay [4] (antibiotic alone), greater than 32 µg/mL; in assay [5] (setting [10]), 0.5 µg/mL; in assay [5] (antibiotic alone), greater than 32 µg/mL; in assay [6] (setting [10]), 1 µg/mL; in assay [6] (antibiotic alone), 16 µg/mL. Also, the MIC of antibiotic turned out to be 0.25 µg/mL in assay [7] (setting [10]) and 0.5 µg/mL in assay [7] (antibiotic alone).

For the compound `CC1C(NC(=O)C(=NOCc2cc(=O)c(O)cn2O)c2noc(N)n2)C(=O)N1S(=O)(=O)O` (stereo not drawn) [Compound 16], the MIC of antibiotic in assay [1] (setting [10]) was 16 µg/mL; in assay [1] (antibiotic alone) it was greater than 32 µg/mL; in assay [2] (setting [10]) it was 16 µg/mL; in assay [2] (antibiotic alone), greater than 32 µg/mL; in assay [3] (setting [10]), 16 µg/mL; in assay [3] (antibiotic alone), greater than 32 µg/mL. For the same compound, the MIC of antibiotic is greater than 32 µg/mL in assay [4] (setting [10]); greater than 32 µg/mL in assay [4] (antibiotic alone); 32 µg/mL in assay [5] (setting [10]); greater than 32 µg/mL in assay [5] (antibiotic alone); greater than 32 µg/mL in assay [6] (setting [10]); greater than 32 µg/mL in assay [6] (antibiotic alone). The MIC of antibiotic in assay [7] (setting [10]) was 2 µg/mL; in assay [7] (antibiotic alone) it was greater than 32 µg/mL.

For the compound `CC1C(NC(=O)C(=NOCc2cc(=O)c(O)cn2O)c2cccc(N)n2)C(=O)N1S(=O)(=O)O` (stereo not drawn) [Compound 20], the MIC of antibiotic was greater than 32 µg/mL in assay [1] (setting [10]); greater than 32 µg/mL in assay [1] (setting [8]); less than 0.06 µg/mL in assay [1] (+ 501 4 mg/L); greater than 32 µg/mL in assay [1] (+ clavulanate 4 mg/L); greater than 32 µg/mL in assay [1] (antibiotic alone); 8 µg/mL in assay [2] (setting [10]). The MIC of antibiotic was greater than 32 µg/mL in assay [2] (setting [8]); greater than 32 µg/mL in assay [2] (+ 501 4 mg/L); greater than 32 µg/mL in assay [2] (+ clavulanate 4 mg/L); greater than 32 µg/mL in assay [2] (antibiotic alone); 32 µg/mL in assay [3] (setting [10]); 16 µg/mL in assay [3] (setting [8]). The MIC of antibiotic was 16 µg/mL in assay [3] (+ 501 4 mg/L); 16 µg/mL in assay [3] (+ clavulanate 4 mg/L); 16 µg/mL in assay [3] (antibiotic alone); 16 µg/mL in assay [4] (setting [10]); 16 µg/mL in assay [4] (setting [8]); greater than 32 µg/mL in assay [4] (+ 501 4 mg/L). Besides, the MIC of antibiotic in assay [4] (+ clavulanate 4 mg/L) is greater than 32 µg/mL; in assay [4] (antibiotic alone) it was greater than 32 µg/mL; in assay [5] (setting [10]), 2 µg/mL; in assay [5] (setting [8]), 4 µg/mL; in assay [5] (+ 501 4 mg/L), 16 µg/mL; in assay [5] (+ clavulanate 4 mg/L) it was 32 µg/mL. Further, the MIC of antibiotic was greater than 32 µg/mL in assay [5] (antibiotic alone); 0.5 µg/mL in assay [6] (setting [10]); 0.5 µg/mL in assay [6] (setting [8]); 2 µg/mL in assay [6] (+ 501 4 mg/L); 2 µg/mL in assay [6] (+ clavulanate 4 mg/L); 4 µg/mL in assay [6] (antibiotic alone). The MIC of antibiotic in assay [7] (setting [10]) was 0.25 µg/mL; in assay [7] (setting [8]) it was 0.5 µg/mL; in assay [7] (+ 501 4 mg/L), 0.25 µg/mL; in assay [7] (+ clavulanate 4 mg/L) it was 0.25 µg/mL; in assay [7] (antibiotic alone), 4 µg/mL.

As to `C[C@H]1[C@H](NC(=O)/C(=N\OCc2cc(=O)c(O)cn2O)c2nccc(N)n2)C(=O)N1S(=O)(=O)O` [Compound 21, (3S,4S)-3-{(2Z)-2-(4-aminopyrimidin-2-yl)-3-[(1,5-dihydroxy-4-oxo(2-hydropyridyl))methoxy]-3-azaprop-2-enoylamino}-4-methyl-2-oxoazetidinesulfonic acid], the MIC of antibiotic in assay [1] (+ 102 + sulbactam, 4 mg/L each) was 2 µg/mL; in assay [1] (+ 324 + sulbactam, 4 mg/L each), 2 µg/mL; in assay [1] (antibiotic alone), greater than 32 µg/mL; in assay [2] (+ 102 + sulbactam, 4 mg/L each), 32 µg/mL; in assay [2] (+ 324 + sulbactam, 4 mg/L each) it was 32 µg/mL; in assay [2] (antibiotic alone), greater than 32 µg/mL. Besides, the MIC of antibiotic in assay [3] (+ 102 + sulbactam, 4 mg/L each) was 16 µg/mL; in assay [3] (+ 324 + sulbactam, 4 mg/L each), 16 µg/mL; in assay [3] (antibiotic alone), 8 µg/mL; in assay [4] (+ 102 + sulbactam, 4 mg/L each), 32 µg/mL; in assay [4] (+ 324 + sulbactam, 4 mg/L each), 8 µg/mL; in assay [4] (antibiotic alone) it was greater than 32 µg/mL. Moreover, the MIC of antibiotic was 2 µg/mL in assay [5] (+ 102 + sulbactam, 4 mg/L each); 4 µg/mL in assay [5] (+ 324 + sulbactam, 4 mg/L each); greater than 32 µg/mL in assay [5] (antibiotic alone); 16 µg/mL in assay [6] (+ 102 + sulbactam, 4 mg/L each); 4 µg/mL in assay [6] (+ 324 + sulbactam, 4 mg/L each); 8 µg/mL in assay [6] (antibiotic alone). In addition, the MIC of antibiotic was 8 µg/mL in assay [7] (+ 102 + sulbactam, 4 mg/L each); 4 µg/mL in assay [7] (+ 324 + sulbactam, 4 mg/L each); 8 µg/mL in assay [7] (antibiotic alone).

With `C[C@H]1[C@H](NC(=O)/C(=N\OCc2cc(=O)c(O)cn2O)c2csc(N)n2)C(=O)N1OCC(=O)O` [Compound 22, 2-((3S,4S)-3-{(2Z)-2-(2-amino(1,3-thiazol-4-yl))-3-[(1,5-dihydroxy-4-oxo(2-hydropyridyl))methoxy]-3-azaprop-2-enoylamino}-4-methyl-2-oxoazetidinyloxy)acetic acid], the MIC of antibiotic in assay [1] (setting [10]) was 4 µg/mL; in assay [1] (antibiotic alone), greater than 32 µg/mL; in assay [2] (setting [10]), 4 µg/mL; in assay [2] (antibiotic alone), 8 µg/mL; in assay [3] (setting [10]) it was 4 µg/mL; in assay [3] (antibiotic alone), 4 µg/mL. The MIC of antibiotic in assay [4] (setting [10]) was 8 µg/mL; in assay [4] (antibiotic alone), greater than 32 µg/mL; in assay [5] (setting [10]), 0.25 µg/mL; in assay [5] (antibiotic alone) it was greater than 32 µg/mL; in assay [6] (setting [10]), 0.25 µg/mL; in assay [6] (antibiotic alone) it was 0.13 µg/mL. Moreover, the MIC of antibiotic in assay [7] (setting [10]) was 1 µg/mL; in assay [7] (antibiotic alone) it was 0.5 µg/mL.

As for `Nc1nc(CC(=O)N2CC[C@@H]3[C@H]2C(=O)N3S(=O)(=O)O)cs1` [Compound 401], the “MIC of antibiotic at fixed inhibitor concentration (4 mg/L)” value was 3 µg/mL in assay [3] (setting [11]), 35 µg/mL in assay [5] (setting [11]) and 3.125 µg/mL in assay [6] (setting [11]).
